Our source for the GI50 and TGI values is PubChem BioAssay (NCI).

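48-hour exposure; five concentrations; linearly interpolated endpoints. At the GI50, growth is halved. Definition used: TGI = concentration required for complete inhibition of growth.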

Test systems include A549 NSCLC; NCI-H23 lung; MOLT-4 leukemia; SK-OV-3 ovarian; NCI-H522 lung; SF-268 CNS; HOP-92 NSCLC; NCI-H226 lung; EKVX NSCLC; KM12 colon.
Assay in all cases: inhibition of tumour cell growth, NCI panel, 48 h

`CCCCCCC/C=C/[C@H]1O[C@]2(O)C(=O)C=C3C[C@@H](O[C@@H]4O[C@H](CO)[C@@H](O)C(O)[C@@H]4O)C[C@@H]3[C@H]2C=C1C` (stereo not given in full): the GI50 was 5.98 µM in the experiment with A549 NSCLC; 4.96 µM with NCI-H23 lung; 0.853 µM in the experiment on MOLT-4 leukemia; 5.95 µM in the experiment with SK-OV-3 ovarian; 0.664 µM in the experiment with NCI-H522 lung; 4.47 µM in the experiment with SF-268 CNS. In addition, the GI50 in the experiment with HOP-92 NSCLC is 3.3 µM; with NCI-H226 lung, 4.52 µM; in the experiment with EKVX NSCLC it was 4.82 µM; in the experiment on KM12 colon it was 3.71 µM. Moreover, the TGI in the experiment with A549 NSCLC was found to be 23.4 µM; in the experiment on NCI-H23 lung it was 13 µM; in the experiment with MOLT-4 leukemia, 2.51 µM; in the experiment with SK-OV-3 ovarian, 16.4 µM; with NCI-H522 lung, 1.81 µM; with SF-268 CNS, 10.3 µM. In addition, the TGI was determined as 11.3 µM in the experiment on HOP-92 NSCLC, 13.7 µM in the experiment with NCI-H226 lung, 11 µM in the experiment on EKVX NSCLC and 8.65 µM with KM12 colon.

As for `CC(C)=CCC1=C(OCC(=O)O)C(=O)c2ccccc2C1=O`, the TGI in the experiment on A549 NSCLC was greater than 100 µM; in the experiment with NCI-H23 lung, greater than 100 µM; in the experiment with MOLT-4 leukemia, greater than 100 µM; with SK-OV-3 ovarian, greater than 100 µM; in the experiment with NCI-H522 lung, 57.4 µM; with SF-268 CNS it was 65 µM. Besides, the TGI was greater than 100 µM in the experiment with HOP-92 NSCLC, 90.1 µM in the experiment on NCI-H226 lung, greater than 100 µM in the experiment with EKVX NSCLC and greater than 100 µM in the experiment on KM12 colon.

Regarding `C[N+](C)(CCCCCC[N+](C)(C)CCCN1C(=O)c2cc3ccccc3cc2C1=O)CCCN1C(=O)c2cc3ccccc3cc2C1=O`, the GI50 with A549 NSCLC, in the experiment with NCI-H23 lung, with MOLT-4 leukemia, with SK-OV-3 ovarian, with NCI-H522 lung and in the experiment with SF-268 CNS was greater than 37.5 µM in each case. In addition, the GI50 in the experiment on HOP-92 NSCLC, with NCI-H226 lung, with EKVX NSCLC and with KM12 colon was greater than 37.5 µM in each case. Also, the TGI in the experiment with A549 NSCLC, in the experiment on NCI-H23 lung, in the experiment with MOLT-4 leukemia, in the experiment on SK-OV-3 ovarian, in the experiment with NCI-H522 lung and with SF-268 CNS was greater than 37.5 µM throughout. Also, the TGI with HOP-92 NSCLC, with NCI-H226 lung, with EKVX NSCLC and in the experiment with KM12 colon was greater than 37.5 µM each time.

Take `Nc1nc2c(nnn2C2OC(CO)C(O)C2O)c(=O)[nH]1` (stereo not given): the GI50 in the experiment with A549 NSCLC was 3.01 µM; in the experiment on NCI-H23 lung, 1.54 µM; with MOLT-4 leukemia, 0.847 µM; in the experiment on SK-OV-3 ovarian, 0.33 µM; in the experiment with NCI-H522 lung, 0.596 µM; in the experiment with SF-268 CNS it was 3.15 µM. In addition, the GI50 with HOP-92 NSCLC is 0.505 µM; in the experiment on NCI-H226 lung it was 6.31 µM; in the experiment on EKVX NSCLC, 14.1 µM; in the experiment with KM12 colon, 0.97 µM. Moreover, the TGI with A549 NSCLC was greater than 100 µM; in the experiment with NCI-H23 lung it was greater than 100 µM; in the experiment with MOLT-4 leukemia, greater than 100 µM; with SK-OV-3 ovarian it was greater than 23.9 µM; in the experiment on NCI-H522 lung, 6.74 µM; in the experiment on SF-268 CNS it was greater than 100 µM. The TGI with HOP-92 NSCLC is 68.4 µM; in the experiment with NCI-H226 lung it was greater than 100 µM; with EKVX NSCLC it was greater than 100 µM; with KM12 colon, greater than 46.8 µM.

Regarding `COC(=O)c1ccc2c(c1)C(=O)c1c-2n(C)c(=O)c2cc(OC)c(OC)cc12`, the GI50 with A549 NSCLC, in the experiment with NCI-H23 lung, in the experiment on MOLT-4 leukemia, in the experiment on SK-OV-3 ovarian, with NCI-H522 lung and in the experiment on SF-268 CNS was greater than 50 µM in each case. Also, the GI50 is 18.8 µM in the experiment with HOP-92 NSCLC, greater than 50 µM in the experiment with NCI-H226 lung, greater than 50 µM in the experiment with EKVX NSCLC and greater than 50 µM in the experiment with KM12 colon. In addition, the TGI in the experiment with A549 NSCLC, in the experiment on NCI-H23 lung, in the experiment on MOLT-4 leukemia, in the experiment with SK-OV-3 ovarian, in the experiment on NCI-H522 lung and in the experiment on SF-268 CNS was greater than 50 µM throughout. Moreover, the TGI with HOP-92 NSCLC, in the experiment with NCI-H226 lung, in the experiment on EKVX NSCLC and in the experiment with KM12 colon was greater than 50 µM in each case.

As to `CCC(CCC(C)C1CCC2C3CC=C4CC(OC5OC(CO)C(O)C(O)C5O)CCC4(C)C3CCC12C)C(C)C` (stereo not given), the TGI with A549 NSCLC, with NCI-H23 lung, in the experiment on MOLT-4 leukemia, in the experiment with SK-OV-3 ovarian, in the experiment on NCI-H522 lung and with SF-268 CNS was greater than 100 µM in each case. Moreover, the TGI with HOP-92 NSCLC, in the experiment with NCI-H226 lung, with EKVX NSCLC and in the experiment on KM12 colon was greater than 100 µM throughout.

As for `COc1cc2oc(-c3ccc(O)cc3O)c(CC=C(C)C)c(=O)c2c(O)c1/C=C/C(C)C`, the TGI in the experiment on A549 NSCLC was determined as 7.75 µM; with NCI-H23 lung, 8.87 µM; in the experiment with MOLT-4 leukemia, 5.24 µM; in the experiment with SK-OV-3 ovarian, 20.6 µM; in the experiment with NCI-H522 lung, 12.1 µM; in the experiment on SF-268 CNS, 5.52 µM. Also, the TGI was found to be 7.3 µM in the experiment with HOP-92 NSCLC, 9.98 µM in the experiment with NCI-H226 lung, 15.3 µM with EKVX NSCLC and 7.51 µM with KM12 colon.

For the compound `Cc1cc(Cl)ccc1NC(=O)CCCC(=O)C1CCC/C1=N\NC(=O)CC#N` (stereo not given), the TGI in the experiment with A549 NSCLC, in the experiment on NCI-H23 lung, with MOLT-4 leukemia, with SK-OV-3 ovarian, with NCI-H522 lung and in the experiment with SF-268 CNS was greater than 100 µM throughout. Also, the TGI in the experiment with HOP-92 NSCLC, with NCI-H226 lung, in the experiment on EKVX NSCLC and in the experiment with KM12 colon was greater than 100 µM throughout.

Turning to `Clc1cc2c(nn1)Nc1ccccc1S2`, the GI50 with A549 NSCLC, in the experiment with NCI-H23 lung, with MOLT-4 leukemia, in the experiment on SK-OV-3 ovarian, in the experiment on NCI-H522 lung and in the experiment with SF-268 CNS was greater than 100 µM each time. For the same compound, the GI50 is greater than 100 µM in the experiment on HOP-92 NSCLC, greater than 100 µM in the experiment on NCI-H226 lung, 35.6 µM in the experiment on EKVX NSCLC and greater than 100 µM in the experiment on KM12 colon. Also, the TGI with A549 NSCLC, in the experiment with NCI-H23 lung, in the experiment on MOLT-4 leukemia, in the experiment with SK-OV-3 ovarian, in the experiment on NCI-H522 lung and with SF-268 CNS was greater than 100 µM throughout. The TGI in the experiment with HOP-92 NSCLC, with NCI-H226 lung, with EKVX NSCLC and in the experiment with KM12 colon was greater than 100 µM throughout.
